According to ChEMBL document CHEMBL3352634 (Bioorg Med Chem Lett, 2014):
Changes are numbered by the printed parent chain.

Columns and labels:
[1] = system: T1, Peroxisome proliferator-activated receptor alpha (Homo sapiens), Q07869 [T279A]; assay: Agonist activity at wild-type human PPARalpha Thr279Ala mutant expressed in COS7 cells after 12 hrs by Dual-Glo luciferase assay relative to control; type: cell-based; conditions: COS-7
T1 sequence (whole entry): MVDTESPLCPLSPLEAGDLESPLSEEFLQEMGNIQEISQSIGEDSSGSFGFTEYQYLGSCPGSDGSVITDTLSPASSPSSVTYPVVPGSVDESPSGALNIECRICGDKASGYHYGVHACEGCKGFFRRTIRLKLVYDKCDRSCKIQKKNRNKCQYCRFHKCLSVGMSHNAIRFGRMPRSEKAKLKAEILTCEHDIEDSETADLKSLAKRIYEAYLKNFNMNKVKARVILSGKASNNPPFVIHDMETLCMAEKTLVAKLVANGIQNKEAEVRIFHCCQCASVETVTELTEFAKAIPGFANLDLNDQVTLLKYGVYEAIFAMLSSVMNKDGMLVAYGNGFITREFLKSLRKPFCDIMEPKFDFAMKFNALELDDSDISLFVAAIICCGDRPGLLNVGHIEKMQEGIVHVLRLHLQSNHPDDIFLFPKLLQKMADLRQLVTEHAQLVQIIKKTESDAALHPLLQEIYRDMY

[2] = molecular target: T2, Peroxisome proliferator-activated receptor gamma (Homo sapiens, UniProt P37231); assay: Agonist activity at human PPARgamma LBD expressed in COS7 cells after 12 hrs by Dual-Glo luciferase assay; type: cell-based, COS-7
T2 sequence (P37231 whole entry): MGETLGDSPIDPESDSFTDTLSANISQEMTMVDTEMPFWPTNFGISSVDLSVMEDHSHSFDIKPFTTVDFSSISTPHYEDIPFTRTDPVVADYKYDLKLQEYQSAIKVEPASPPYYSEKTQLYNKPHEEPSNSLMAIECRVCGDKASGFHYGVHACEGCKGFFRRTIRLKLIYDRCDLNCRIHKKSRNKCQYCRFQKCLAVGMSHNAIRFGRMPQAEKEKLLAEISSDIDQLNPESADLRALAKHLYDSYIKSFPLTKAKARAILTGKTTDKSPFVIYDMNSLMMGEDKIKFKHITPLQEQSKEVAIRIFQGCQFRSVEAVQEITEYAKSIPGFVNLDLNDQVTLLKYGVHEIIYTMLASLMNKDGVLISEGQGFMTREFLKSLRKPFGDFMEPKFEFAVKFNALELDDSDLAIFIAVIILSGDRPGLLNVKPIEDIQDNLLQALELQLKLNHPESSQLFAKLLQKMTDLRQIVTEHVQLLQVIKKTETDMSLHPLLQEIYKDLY

[3] = molecular target: T3, Peroxisome proliferator-activated receptor alpha (Homo sapiens, UniProt Q07869); assay: Agonist activity at wild-type human PPARalpha LBD expressed in COS7 cells after 12 hrs by Dual-Glo luciferase assay; type: cell-based, COS-7
T3 sequence (Q07869 whole entry): T1 sequence (whole entry) with A279T

[4] = molecular target: Peroxisome proliferator-activated receptor alpha (Homo sapiens, UniProt Q07869, T279A); assay: Agonist activity at wild-type human PPARalpha Thr279Ala mutant expressed in COS7 cells after 12 hrs by Dual-Glo luciferase assay; type: cell-based, COS-7
[5] = molecular target: T4, Peroxisome proliferator-activated receptor alpha (Homo sapiens) (UniProt Q07869); assay: Agonist activity at wild-type human PPARalpha LBD expressed in COS7 cells after 12 hrs by Dual-Glo luciferase assay relative to control; type: cell-based; conditions: COS-7
T4 sequence (whole entry): T1 sequence (whole entry) with A279T

[6] = molecular target: T5, Peroxisome proliferator-activated receptor gamma (Homo sapiens) (UniProt P37231); assay: Agonist activity at human PPARgamma LBD expressed in COS7 cells after 12 hrs by Dual-Glo luciferase assay relative to pioglitazone; type: cell-based; conditions: COS-7
T5 sequence (whole entry): T2 sequence (P37231 whole entry)

[7] = molecular target: T4, Peroxisome proliferator-activated receptor alpha (Homo sapiens); assay: Agonist activity at wild-type human PPARalpha LBD expressed in COS7 cells after 12 hrs by Dual-Glo luciferase assay relative to pirinixic acid; type: cell-based; conditions: COS-7
[8] = system: COS-7; assay: Selectivity ratio of EC50 for human PPARgamma LBD expressed in COS7 cells to EC50 for wild-type human PPARalpha LBD expressed in COS7 cells; type: cell-based

SMILES	%max [1] [%]	EC50 [2] [nM]	EC50 [3] [nM]	EC50 [4] [nM]	%max [5] [%]	%max [6] [%]	%max [7] [%]	Ratio EC50 [8]
CCCCCCC(Sc1nc(Cl)cc(Nc2ccc(Oc3ccccc3)cc2)n1)C(=O)O (stereo not drawn)	87	2360	280	150	155	146		
CCCCC(Sc1nc(Cl)cc(Nc2ccc(Nc3ccccc3)cc2)n1)C(=O)O (stereo not drawn)		1060	350		137	135		
CCCCCCC(Sc1nc(Cl)cc(Nc2cccc(C)c2C)n1)C(=O)O (stereo not drawn)			1000			139	146	
Cc1cccc(Nc2cc(Cl)nc(SCC(=O)O)n2)c1C						79		
O=C(O)CSc1nc(Cl)cc(Nc2ccc(Nc3ccccc3)cc2)n1		12400	12000		133	143		
CCCCCCC(Sc1nc(Cl)cc(Nc2ccc(Nc3ccccc3)cc2)n1)C(=O)O (stereo not drawn)	115	690	70	100	95	126		> 10
CCCCC(Sc1nc(Cl)cc(Nc2cccc(C)c2C)n1)C(=O)O (stereo not drawn)						120		
CCCCCCC(Sc1nc(Cl)cc(Nc2ccc(C(=O)c3ccccc3)cc2)n1)C(=O)O (stereo not drawn)	105	1200	280	70	134	117		
CCCCCCC(Sc1nc(Cl)cc(Nc2ccc(Cc3ccccc3)cc2)n1)C(=O)O (stereo not drawn)	83	490	720	240	127	158		
